The values that follow come from patent US20120077814A1, “SULFONAMIDE, SULFAMATE, AND SULFAMOTHIOATE DERIVATIVES” (priority 2010, published 2012).

Structures are written as SMILES.

The test system of test [1] is HCT-116 cell proliferation. The experiment in a line: Cell proliferation assay (HCT-116). Format: cell-based. As to conditions: Homo sapiens; HCT-116 cells; read-out: Activity (range of inhibitory activity against HCT-116 cell proliferation, IC50). The procedure:
A panel of cancer cell lines is obtained from ATCC (Rockville, Md.). Cell cultures are maintained in Hyclone DMEM/F12 medium (Logan, Utah) supplemented with 10% fetal bovine serum and 15 mM HEPES buffer, final pH 7.2, at 37° C. with a 5% CO2 atmosphere. Cultures are maintained at sub-confluent densities.
For proliferation assays, cells are seeded into 96 well plates at 1,000-5,000 cells per well, depending on the cell line, and are incubated overnight. The following day, test compound, DMSO solution (negative control), or Actinomycin D (positive control) is added to the appropriate wells as 10× concentrated stocks prepared in phosphate buffered saline. The cell plates are then incubated for an additional 2-6 days, depending on the cell line, to allow proliferation to occur. To measure cell growth in adherent cultures, DNA amounts are measured in each well using the CyQuant DNA determination kit (Invitrogen, Carlsbad, Calif.) following the recommended protocol. Measurement of cell growth in suspension cultures is done by use of Celltiter Reagent (Promega, Madison, Wis.) at the end of treatment, following the recommended protocol. The percentage of cell growth is determined by comparing the cell growth in the presence of test compounds to the cells treated with DMSO vehicle (control, 100% growth) and cells treated with Actinomycin D ([…], 0% growth). […]

In test [2] the target is T1, recombinant human NAE enzyme (NEDD8 Activating Enzyme) (Homo sapiens, UniProt Q8TBC4).
T1 sequence (Q8TBC4 1-463): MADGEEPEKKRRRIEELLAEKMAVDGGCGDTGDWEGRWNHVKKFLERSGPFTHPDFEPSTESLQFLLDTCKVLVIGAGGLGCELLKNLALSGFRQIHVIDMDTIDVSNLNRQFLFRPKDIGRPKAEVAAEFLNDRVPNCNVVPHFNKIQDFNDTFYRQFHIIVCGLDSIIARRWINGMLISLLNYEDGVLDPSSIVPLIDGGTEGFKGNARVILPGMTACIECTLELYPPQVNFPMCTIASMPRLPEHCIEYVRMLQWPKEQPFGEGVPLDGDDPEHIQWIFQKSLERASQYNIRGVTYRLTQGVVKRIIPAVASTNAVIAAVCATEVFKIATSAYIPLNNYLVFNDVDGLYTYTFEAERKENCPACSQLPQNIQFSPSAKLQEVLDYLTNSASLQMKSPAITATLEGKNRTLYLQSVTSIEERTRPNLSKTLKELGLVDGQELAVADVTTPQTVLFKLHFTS
T1 sequence (Q13564 1-534 partner): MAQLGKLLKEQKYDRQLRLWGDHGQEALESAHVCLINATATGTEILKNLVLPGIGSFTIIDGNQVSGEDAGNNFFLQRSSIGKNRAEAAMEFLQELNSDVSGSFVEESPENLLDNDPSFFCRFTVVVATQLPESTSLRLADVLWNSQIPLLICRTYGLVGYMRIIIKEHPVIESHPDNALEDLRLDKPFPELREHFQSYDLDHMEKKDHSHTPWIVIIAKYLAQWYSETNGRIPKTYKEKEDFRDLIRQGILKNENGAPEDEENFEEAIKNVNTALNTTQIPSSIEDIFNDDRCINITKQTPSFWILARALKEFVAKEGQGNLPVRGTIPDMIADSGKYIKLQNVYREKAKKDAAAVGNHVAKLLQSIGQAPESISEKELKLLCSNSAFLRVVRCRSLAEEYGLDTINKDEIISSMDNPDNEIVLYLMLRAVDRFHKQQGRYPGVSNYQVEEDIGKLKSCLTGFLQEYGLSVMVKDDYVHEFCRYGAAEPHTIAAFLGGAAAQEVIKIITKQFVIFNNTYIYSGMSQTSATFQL
In words: E1-activating enzyme assay, time-resolved fluorescence energy transfer (NAE). Format: biochemical. As to conditions: 0.5 nM recombinant human NAE, 100 μM ATP; read-out: Activity (range of inhibitory activity on NAE, IC50). How it is done:
A time-resolved fluorescence energy transfer assay format is used to measure the in vitro activity of NEDD8 Activating Enzyme (NAE). The enzymatic reaction is performed in a total volume of 50 μL, containing 50 mM HEPES, pH 7.5, 0.05% BSA, 5 mM MgCl2, 100 μM ATP, 10 nM Ubc12-GST, 75 nM NEDD8-Flag and 0.5 nM recombinant human NAE enzyme. The reaction mixture is incubated with and without compound inhibitor at 24° C. for 30 min in a 96 half-well plate. The reaction is then terminated with 25 μL of stop/detection buffer (0.1 M HEPES, pH 7.5, 0.05% Tween20, 20 mM EDTA, 410 mM KF, 81.8 ng/mL Europium-Cryptate-labelled monoclonal Flag-M2-specific antibody (CisBio International) and 8.125 μg/mL PHYCOLINK allophycocyanin (XL-APC)-labelled GST-specific antibody (Prozyme)). After incubation for 2 hours at 24° C., the plate is read on a Tecan Infinite M1000 instrument using a time-resolved fluorescence method. A similar assay protocol is used to measure other E1 enzymes. For the Sumo Activating Enzyme (SAE) assay everything is conducted as described for NAE except that Ubc12-GST and NEDD8-Flag are replaced with 10 nM Ubc9-GST and 125 nM Sumo-Flag respectively, and recombinant human SAE (0.6 nM) replaced NAE. The Ubiquitin Activating Enzyme (UAE) assay is performed as described for NAE except Ubc12-GST, NEDD8-Flag, and NAE are replaced with 5 nM Ubc2-GST, 125 nM UBB-Flag, and 1.5 nM UAE respectively.
Compounds of the disclosure are inhibitors of NAE. Several exemplary compounds useful in the methods of the disclosure are listed below.

With `Nc1ncnc2c([C@@H]3O[C@H](COS(N)(=O)=O)[C@@H](O)[C@H]3O)[nH]nc12` [Compound 3, [(2R,3S,4R,5S)-5-(7-amino-1H-pyrazolo[4,3-d]pyrimidin-3-yl)-3,4-dihydroxy-tetrahydrofuran-2-yl]methyl sulfamate], the IC50 in test [1] and in test [2] was 0.5 to 5 µM throughout. `NS(=O)(=O)OC[C@H]1O[C@@H](c2csc3c(NCc4cccc(Cl)c4)ncnc23)[C@H](O)[C@@H]1O` [Compound 37, (5-(4-(3-chlorobenzylamino)thieno[3,2-d]pyrimidin-7-yl)-3,4-dihydroxytetrahydrofuran-2-yl)methyl sulfamate]: the IC50 in test [2] was 0.5 to 5 µM. Consider `NS(=O)(=O)OC[C@H]1O[C@@H](c2csc3c(N[C@H]4CCc5ccccc54)ncnc23)C[C@@H]1O` [Compound 10, ((2R,3S,5R)-5-(4-((S)-2,3-dihydro-1H-inden-1-ylamino)thieno[3,2-d]pyrimidin-7-yl)-3-hydroxytetrahydrofuran-2-yl)methyl sulfamate], for which the IC50 in test [1] and in test [2] was 0.5 to 5 µM each time. For `NS(=O)(=O)OC[C@H]1O[C@@H](c2csc3c(NCc4ccccc4)ncnc23)[C@H](O)[C@@H]1O` [Compound 25, (5-(4-(benzylamino)thieno[3,2-d]pyrimidin-7-yl)-3,4-dihydroxytetrahydrofuran-2-yl)methyl sulfamate], the IC50 in test [1] is 0.5 to 5 µM. Take `Nc1ncnc2c([C@@H]3O[C@H](COS(N)(=O)=O)[C@@H](O)[C@H]3O)csc12` [Compound 4, [(2R,3S,4R,5S)-5-(4-aminothieno[3,2-d]pyrimidin-7-yl)-3,4-dihydroxy-tetrahydrofuran-2-yl]methyl sulfamate]: the IC50 in test [1] and in test [2] was less than 0.5 µM in each case. As to `Nc1ncnc2c([C@@H]3O[C@H](COS(N)(=O)=O)[C@@H](O)[C@H]3O)cnn12` [Compound 13, ((2R,3S,4R,5S)-5-(4-aminopyrazolo[1,5-a][1,3,5]triazin-8-yl)-3,4-dihydroxytetrahydrofuran-2-yl)methyl sulfamate], the IC50 in test [1] is 5 to 50 µM. On to `NS(=O)(=O)OC[C@H]1O[C@@H](c2csc3c(NCc4ccccc4Cl)ncnc23)[C@H](O)[C@@H]1O` [Compound 30, (5-(4-(2-chlorobenzylamino)thieno[3,2-d]pyrimidin-7-yl)-3,4-dihydroxytetrahydrofuran-2-yl)methyl sulfamate], for which the IC50 in test [2] lay within 0.5 to 5 µM.

As to `COCCNc1ncnc2c([C@@H]3O[C@H](COS(N)(=O)=O)[C@@H](O)[C@H]3O)csc12` [Compound 28, (3,4-dihydroxy-5-(4-(2-methoxyethylamino)thieno[3,2-d]pyrimidin-7-yl)tetrahydrofuran-2-yl)methyl sulfamate], the IC50 in test [1] is 5 to 50 µM. For `Nc1ncnc2c([C@@H]3O[C@H](COS(N)(=O)=O)[C@@H](O)[C@H]3O)coc12` [Compound 11, ((2R,3S,4R,5S)-5-(4-aminofuro[3,2-d]pyrimidin-7-yl)-3,4-dihydroxytetrahydrofuran-2-yl)methyl sulfamate], the results for the IC50 in test [1] and in test [2] were less than 0.5 µM and 0.5 to 5 µM, respectively. Taken in the same sequence, the figures for `NS(=O)(=O)OC[C@H]1O[C@@H](c2csc3c(NCc4ccc(Cl)cc4)ncnc23)[C@H](O)[C@@H]1O` [Compound 6, ((2R,3S,4R,5S)-5-(4-(4-chlorobenzylamino)thieno[3,2-d]pyrimidin-7-yl)-3,4-dihydroxytetrahydrofuran-2-yl)methyl sulfamate] were 0.5 to 5 µM and less than 0.5 µM. Turning to `NS(=O)(=O)OC[C@H]1O[C@@H](c2coc3c(NCc4ccc(Cl)cc4Cl)ncnc23)[C@H](O)[C@@H]1O` [Compound 34, (5-(4-(2,4-dichlorobenzylamino)furo[3,2-d]pyrimidin-7-yl)-3,4-dihydroxytetrahydrofuran-2-yl)methyl sulfamate], the IC50 in test [1] lay in the range of 5 to 50 µM.

Take `NS(=O)(=O)OC[C@H]1O[C@@H](c2ccc3c(N[C@H]4CCc5ccccc54)ncnn23)CC1=O` [Compound 1, [(2R,5R)-5-[4-[[(1S)-indan-1-yl]amino]pyrrolo[2,1-f][1,2,4]triazin-7-yl]-3-oxo-tetrahydrofuran-2-yl]methyl sulfamate]: the IC50 in test [1] and in test [2] was 5 to 50 µM each time. As to `NS(=O)(=O)OC[C@H]1C[C@H](c2ccc3c(N[C@H]4CCc5ccccc54)ncnn23)C[C@@H]1OS(N)(=O)=O` [Compound 19, [2-[(aminosulfonyl)oxy]-4-{4-[2,3-dihydro-1H-inden-1-ylamino]pyrrolo[2,1-f][1,2,4]triazin-7-yl}cyclopentyl]methyl sulfamate], the IC50 in test [1] and in test [2] was 5 to 50 µM each time. For `NS(=O)(=O)OC[C@H]1O[C@@H](c2csc3c(NCC4CC4)ncnc23)[C@H](O)[C@@H]1O` [Compound 26, (5-(4-(cyclopropylmethylamino)thieno[3,2-d]pyrimidin-7-yl)-3,4-dihydroxytetrahydrofuran-2-yl)methyl sulfamate], in test [1], the IC50 lay within 5 to 50 µM.

Turning to `NS(=O)(=O)OC[C@H]1O[C@@H](c2coc3c(NCc4ccc(Cl)c(C(F)(F)F)c4)ncnc23)[C@H](O)[C@@H]1O` [Compound 35, (5-(4-(4-chloro-3-(trifluoromethyl)benzylamino)furo[3,2-d]pyrimidin-7-yl)-3,4-dihydroxytetrahydrofuran-2-yl)methyl sulfamate], the IC50 in test [2] fell in the range of 0.5 to 5 µM.
